Data: article PMC10791743, “Selective CK1α degraders exert antiproliferative activity against a broad range of human cancer cell lines” (Nature Communications, 2024)
Several values for one entry are separate records, joined by “and”; a condition that tells them apart may be missing. Equal values may be shown once.

Columns and labels:
[1] = Pharmacokinetics in female CD1 mice; assay type: in vivo, mouse; details: female CD1 mice
Method: Three mice were housed in each cage. […] Temperature and humidity were recorded by an auto-controlled data logger system. All the animals were provided a laboratory rodent diet (Altromin, Germany). Reverse osmosis water treated with ultraviolet light was provided ad libitum. Total 27 mice (n = 9/group) were divided into three groups as Group 1, Group 2, and Group 3 with a sparse sampling design (3 mice/time points). […] The formulation vehicle for IV was 5% v/v NMP, 5% v/v Solutol HS-15 and 90% v/v Normal saline, and for PO & IP was 10%v/v NMP, 10%v/v Solutol HS-15. 50%v/v PEG-400 and 30%v/v HPβCD (20%w/v) in saline. […] Immediately after blood collection, plasma was harvested by centrifugation at 12,300×g, 10 min at 4 °C and samples were stored at −70 ± 10 °C until bioanalysis. Concentrations of SJ3149 in mouse plasma samples were determined by fit-for-purpose LC–MS/MS method. Non-Compartmental-Analysis tool of Phoenix WinNonlin® (Version 8.3) was used to assess the pharmacokinetic parameters. Peak plasma concentration (Cmax) and time for the peak plasma concentration (Tmax) were the observed values. The area under the concentration–time curve (AUClast) was calculated by the linear trapezoidal rule. The terminal elimination rate constant, ke was determined by regression analysis of the linear terminal portion of the log plasma concentration-time curve. Clearance was estimated as Dose/AUCinf and Vss as CL*MRT.

MOLM-13 cells = assay: MOLM-13 cell viability assay (CTG, 72 h); assay type: cell-based, human; design: key to Cell viability in MOLM-13 cells / cell viability, dose-response replicate values: % viability = 100 − % activity, normalized to controls; details: for cell viability, dose-response replicate values: MOLM-13 WT, listed as CC-220
Method: The primary screen was performed in 384-well format using the CellTiter Glo (CTG) luminescent cell viability assay (Promega) as previously described. […] After overnight incubation at 37 °C in a humidified 5% CO2 incubator, cells were treated with compounds in dose–response format using a Pintool on a Biomek FX^P Laboratory Automation Workstation (Beckman Coulter). […] Luminescence signal was measured using an EnVision plate reader (PerkinElmer). […]
number per well and incubated overnight at 37 °C in a humidified 5 % CO2 incubator. Compounds were transferred to the assay plate from a dose-response plate using a Labcyte Echo 650 Acoustic Liquid Handler (Beckman Coulter , USA). […]
using Promega’s CellTiter-Glo reagent according to the manufacturer’s recommendation.
Luminescence was measured on the Envision plate reader (PerkinElmer, USA). Raw luminescence relative light unit (RLU) values for each compound at each concentration were normalized to obtain % activity using the following equation (1): 100 × [(mean(negctrl) – compound)/(mean (negctrl) – mean (posctrl))]. The % activity was converted to % viability using the following equation (2):
(100 – % activity), and then pooled from replicate experiments prior to fitting. Here, negctrl and posctrl refer to the negative (DMSO) and positive controls (staurosporine) on each plate. Dose-response curves were fit to the Hill equation using the GraphPad Prism (version 10). […]

[2] = single intraperitoneal 50 mg/kg, 0.5 hr
[3] = single intraperitoneal 50 mg/kg, 1 hr
[4] = single intraperitoneal 50 mg/kg, 2 hr
[5] = single intraperitoneal 50 mg/kg, 6 hr
[6] = single intraperitoneal 50 mg/kg, 8 hr
[7] = single intraperitoneal 50 mg/kg, 24 hr

Compound: O=C1CCC(N2Cc3cc(Nc4noc5ccccc45)ccc3C2=O)C(=O)N1 (stereo not shown) [SJ001043149]
- Plasma Concentration, Mean [1, 2]: 4253.68 ng/mL
- Plasma Concentration, individual animal [1, 2]: 2474.57 ng/mL and 2615.2 ng/mL and 7671.27 ng/mL
- Plasma Concentration, Mean [1, 3]: 3788.89 ng/mL
- Plasma Concentration, individual animal [1, 3]: 3408.76 ng/mL and 3558.82 ng/mL and 4399.09 ng/mL
- Plasma Concentration, Mean [1, 4]: 3436.75 ng/mL
- Plasma Concentration, individual animal [1, 4]: 3844.39 ng/mL and 3042 ng/mL and 3423.87 ng/mL
- Plasma Concentration, individual animal ([1]; single intraperitoneal 50 mg/kg, 4 hr): 37.79e ng/mL and 613.87 ng/mL and 1233.77 ng/mL
- Plasma Concentration, Mean ([1]; single intraperitoneal 50 mg/kg, 4 hr, average of two values): 22172 ng·h/mL
- Plasma Concentration, Mean [1, 5]: 336.83 ng/mL
- Plasma Concentration, individual animal [1, 5]: 224.92 ng/mL and 422.53 ng/mL and 363.03 ng/mL
- Plasma Concentration, Mean [1, 6]: 626.18 ng/mL
- Plasma Concentration, individual animal [1, 6]: 584.82 ng/mL and 376.02 ng/mL and 917.7 ng/mL
- Plasma Concentration, individual animal ([1]; single intraperitoneal 50 mg/kg, 12 hr): 1.02e ng/mL and 119 ng/mL and 188.95 ng/mL
- Plasma Concentration, Mean ([1]; single intraperitoneal 50 mg/kg, 12 hr, average of two values): 3695.5 ng·h/mL
- Plasma Concentration, Mean [1, 7]: 14.86 ng/mL
- Plasma Concentration, individual animal [1, 7]: 16.86 ng/mL and 11.98 ng/mL and 15.73 ng/mL
- Plasma Concentration, Mean ([1]; single intravenous 3 mg/kg, 0.08 hr): 3540.18 ng/mL
- Plasma Concentration, individual animal ([1]; single intravenous 3 mg/kg, 0.08 hr, 3 mg/kg): 3522.19 ng/mL and 3164.19 ng/mL and 3934.15 ng/mL
- Plasma Concentration, Mean ([1]; single intravenous 3 mg/kg, 0.5 hr): 548.51 ng/mL
- Plasma Concentration, individual animal ([1]; single intravenous 3 mg/kg, 0.5 hr, 3 mg/kg): 590.56 ng/mL and 721 ng/mL and 333.96 ng/mL
- Plasma Concentration, individual animal ([1]; single intravenous 3 mg/kg, 1 hr, 3 mg/kg): 89.11 ng/mL and 82.85 ng/mL and 465.12e ng/mL
- Plasma Concentration, Mean ([1]; single intravenous 3 mg/kg, 1 hr, average of two values): 2064 ng·h/mL
- Plasma Concentration, Mean ([1]; single intravenous 3 mg/kg, 2 hr): 21.37 ng/mL
- Plasma Concentration, individual animal ([1]; single intravenous 3 mg/kg, 2 hr, 3 mg/kg): 26.85 ng/mL and 22.73 ng/mL and 14.53 ng/mL
- Plasma Concentration, Mean ([1]; single intravenous 3 mg/kg, 4 hr): 5.15 ng/mL
- Plasma Concentration, individual animal ([1]; single intravenous 3 mg/kg, 4 hr, 3 mg/kg): 2.92 ng/mL and 9.75 ng/mL and 2.78 ng/mL
- Plasma Concentration, individual animal ([1]; single intravenous 3 mg/kg, 8 hr, LLOQ 1.00 ng/mL, 3 mg/kg): BLQ and 2.43e ng/mL
- Plasma Concentration, individual animal ([1]; single intravenous 3 mg/kg, 12 hr, LLOQ 1.00 ng/mL): BLQ
- Plasma Concentration, individual animal ([1]; single intravenous 3 mg/kg, 24 hr, LLOQ 1.00 ng/mL): BLQ
- Plasma Concentration, Mean ([1]; single oral 50 mg/kg, 0.5 hr): 1802.13 ng/mL
- Plasma Concentration, individual animal ([1]; single oral 50 mg/kg, 0.5 hr, 50 mg/kg): 1597.22 ng/mL and 2494.42 ng/mL and 1314.74 ng/mL
- Plasma Concentration, Mean ([1]; single oral 50 mg/kg, 1 hr): 635.82 ng/mL
- Plasma Concentration, individual animal ([1]; single oral 50 mg/kg, 1 hr, 50 mg/kg): 300.99 ng/mL and 799.29 ng/mL and 807.18 ng/mL
- Plasma Concentration, individual animal ([1]; single oral 50 mg/kg, 2 hr, 50 mg/kg): 207.45 ng/mL and 268.31 ng/mL and 77.73e ng/mL
- Plasma Concentration, Mean ([1]; single oral 50 mg/kg, 2 hr, average of two values): 5709.1 ng·h/mL
- Plasma Concentration, Mean ([1]; single oral 50 mg/kg, 4 hr): 35.43 ng/mL
- Plasma Concentration, individual animal ([1]; single oral 50 mg/kg, 4 hr, 50 mg/kg): 57.72 ng/mL and 27.57 ng/mL and 21 ng/mL
- Plasma Concentration, individual animal ([1]; single oral 50 mg/kg, 6 hr, 50 mg/kg): 5.43e ng/mL and 17.18 ng/mL and 23.01 ng/mL
- Plasma Concentration, Mean ([1]; single oral 50 mg/kg, 6 hr, average of two values): 482.4 ng·h/mL
- Plasma Concentration, individual animal ([1]; single oral 50 mg/kg, 8 hr, 50 mg/kg): 6.11 ng/mL and 16.97 ng/mL and 1.39e ng/mL
- Plasma Concentration, Mean ([1]; single oral 50 mg/kg, 8 hr, average of two values): 277 ng·h/mL
- Plasma Concentration, Mean ([1]; single oral 50 mg/kg, 12 hr): 3.98 ng/mL
- Plasma Concentration, individual animal ([1]; single oral 50 mg/kg, 12 hr, 50 mg/kg): 3.44 ng/mL and 4.89 ng/mL and 3.6 ng/mL
- Plasma Concentration, individual animal ([1]; single oral 50 mg/kg, 24 hr, LLOQ 1.00 ng/mL, 50 mg/kg): 2.03e ng/mL and BLQ

Compound: O=C1CC[C@H](N2Cc3c(OCc4ccc(CN5CCOCC5)cc4)cccc3C2=O)C(=O)N1 [iberdomide, reference compound]
- Effect on MOLM-13 cell viability (cytotoxicity) (MOLM-13 cells; CTG 72 h): very little effect
- cell viability, dose-response replicate values (MOLM-13 cells; Concentration 0.00053416): 104.205 and 101.273 and 105.756
- cell viability, dose-response replicate values (MOLM-13 cells; Concentration 0.00160248): 116.013 and 103.828 and 106.347
- cell viability, dose-response replicate values (MOLM-13 cells; Concentration 0.00480744): 99.9393 and 109.095 and 93.7856
- cell viability, dose-response replicate values (MOLM-13 cells; Concentration 0.0144223): 103.939 and 96.4969 and 110.266
- cell viability, dose-response replicate values (MOLM-13 cells; Concentration 0.0432669): 111.735 and 98.8709 and 109.735
- cell viability, dose-response replicate values (MOLM-13 cells; Concentration 0.129801): 112.307 and 99.7991 and 100.005
- cell viability, dose-response replicate values (MOLM-13 cells; Concentration 0.389402): 95.4783 and 95.9453 and 89.9456
- cell viability, dose-response replicate values (MOLM-13 cells; Concentration 1.16821): 93.0089 and 93.9287 and 92.6782
- cell viability, dose-response replicate values (MOLM-13 cells; Concentration 3.50462): 93.5137 and 89.0055 and 86.6893
- cell viability, dose-response replicate values (MOLM-13 cells; Concentration 10.5139): 95.8132 and 82.1796 and 91.7179
